IC50 data for 1 compound are collected here from patent publication US20130143835A1, “HCV Polymerase Inhibitors” (MEDIVIR AB, priority 2011, published 2013).

This assay concerns the target T1, HCV NS5B-21 (Hepatitis C virus genotype 1b, UniProt Q9WMX2).
T1 construct: HCV NS5B-21 (21-aminoacid C-terminally truncated version); purchased Replizyme
In words: HCV NS5B-21 enzyme assay (SPA, 3H-ATP incorporation). Format: biochemical. Particulars: HCV NS5B-21 SPA enzyme assay, triphosphate tested. The method, then:
It is this triphosphate which is believed to be the antivirally active species. The enzyme assay described here example may be used to confirm that compounds of the invention are antivirally active as the 5′-triphosphate metabolite.
The enzyme assay measures the inhibitory effect of triphosphate compounds in an HCV NS5B-21 (21-aminoacid C-terminally truncated version) SPA assay (scintillation proximity assay). The assay is performed by evaluating the amount of radiolabelled ATP incorporated by HCV NS5B-21 into newly synthesized RNA using an heterogeneous biotinylated RNA template.
To determine IC50 values the compounds are tested at various concentrations in a final volume of 100 μl of reaction mixture. The reaction is stopped by addition of 0.5M EDTA solution. The samples are transferred into flashplates precoated with streptavidin. The incorporated radioactivity is quantified using a scintillation counter (Wallac Microbeta Trilux).
The assay should include enzyme controls (about four, containing 1 μl DMSO instead of inhibitor) and background control containing all ingredients except template.
Compounds are serially diluted in DMSO on a separate dilution plate to 100× the final desired assay concentrations. […]
Incubate the plate over night and read the flash plate in the Microbeta Trilux using the protocol Flash plates H3. […]
IC50 is determined using Graphpad Prism. […]

The structures appear in SMILES notation.

One may read the IC50 as the concentration needed to halve the response being measured. Lower therefore signals greater potency in that assay.

`C[C@@]1(N)[C@H](O)[C@@H](COP(=O)(O)OP(=O)(O)OP(=O)(O)O)O[C@H]1n1ccc(=O)[nH]c1=O` [Example 3, potassium ((2R,3S,4R,5R)-4-amino-5-(2,4-dioxo-3,4-dihydropyrimidin-1(2H)-yl)-3-hydroxy-4-methyltetrahydrofuran-2-yl)methyl triphosphate] registered a 50% inhibitory concentration (IC50) of 13 µM.
